The results in this text go back to publication PMC10335629 (Journal of the American Chemical Society, 2023).

The target of one assay is T1, GLP-2R (Homo sapiens, UniProt O95838).
T1 sequence (O95838 1-553): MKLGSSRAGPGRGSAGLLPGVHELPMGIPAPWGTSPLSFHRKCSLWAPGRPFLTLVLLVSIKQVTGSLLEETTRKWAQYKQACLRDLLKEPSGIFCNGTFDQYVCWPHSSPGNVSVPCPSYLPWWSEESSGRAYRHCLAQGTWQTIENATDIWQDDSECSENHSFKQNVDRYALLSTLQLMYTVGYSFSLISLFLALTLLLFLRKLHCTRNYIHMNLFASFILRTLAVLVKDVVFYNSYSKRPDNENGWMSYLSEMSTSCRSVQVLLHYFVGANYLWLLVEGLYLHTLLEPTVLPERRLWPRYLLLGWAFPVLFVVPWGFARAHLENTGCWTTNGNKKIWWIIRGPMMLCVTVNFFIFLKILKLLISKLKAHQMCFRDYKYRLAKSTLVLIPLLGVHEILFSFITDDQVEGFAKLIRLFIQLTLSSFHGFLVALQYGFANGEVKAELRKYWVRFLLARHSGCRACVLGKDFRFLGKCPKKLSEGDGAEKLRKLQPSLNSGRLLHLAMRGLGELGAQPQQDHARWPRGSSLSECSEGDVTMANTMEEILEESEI
The assay is described as follows: GLP-2R activation: cAMP production, GloSensor HEK293 cells.

Assay [1] addresses nLuc-GLP-2R (UniProt O95838).
The target in assay [2] is T2, nLuc-GLP-2R (Homo sapiens, UniProt O95838).
T2 sequence (O95838 1-553): T1 sequence (O95838 1-553)
The assay is described as follows: nLuc-GLP-2R competition binding.

The target of a further assay is GLP-1R (Homo sapiens, UniProt P43220). Nature of the assay: GLP-1R activation: cAMP production, GloSensor HEK293 cells. The assay is classed as cell-based. For orientation: Changes in cAMP serve as a functional read-out for many G protein-coupled receptors.
Assay [3] concerns the target nLuc-GLP-2R (UniProt O95838). The source holds these as a separate data set.
Assay [4] concerns the target nLuc-GLP-2R (UniProt O95838). Nature of the assay: FRET or BRET.
For another assay, the target named is nLuc-GLP-1R (Homo sapiens, UniProt P43220). Nature of the assay: nLuc-GLP-1R competition binding.

Where two headings read alike, the source gives them in different places. No end group written: not given here.

GLP-1R, sequence (P43220 24-463): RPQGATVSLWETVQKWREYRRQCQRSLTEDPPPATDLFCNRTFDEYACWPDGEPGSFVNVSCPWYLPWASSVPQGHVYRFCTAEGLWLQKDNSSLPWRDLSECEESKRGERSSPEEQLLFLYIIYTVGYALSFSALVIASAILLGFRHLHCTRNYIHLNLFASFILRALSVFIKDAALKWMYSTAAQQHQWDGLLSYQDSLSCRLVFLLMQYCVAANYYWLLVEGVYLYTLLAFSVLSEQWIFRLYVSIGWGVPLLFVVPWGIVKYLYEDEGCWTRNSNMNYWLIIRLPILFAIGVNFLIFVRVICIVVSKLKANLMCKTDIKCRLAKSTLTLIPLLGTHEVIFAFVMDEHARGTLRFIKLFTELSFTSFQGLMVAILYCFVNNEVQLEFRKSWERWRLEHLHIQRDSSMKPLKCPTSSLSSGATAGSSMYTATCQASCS
nLuc-GLP-1R, sequence (P43220 24-463): as above

For “GLP-2-NH2: C-terminal amide analogue of the hormone GLP-2”, the “effect of altering the C-terminus to a primary amide on GLP-2R activation” value with GLP-2R (natural sequence, compared with GLP-2, Figure S1) was “no effect on GLP-2R activation”.

For the substance glepaglutide (GLE) (peptide), in the assay with nLuc-GLP-2R [1], the GLP-2R cAMP Production, EC50 (native GLP-2R) turned out to be 0.44 nM.

Regarding “HGEGTFSSELATILDALAARDFIAWLIATKITDKKKKKK-NH2 (C-terminus assumed) [GLE, glepaglutide]”, the “lower affinity for nLuc-GLP-2R relative to GLP-2” value at nLuc-GLP-2R [2] (competition BRET, Figure S2) is ~ 10 fold. Besides, the “GLP-1R cAMP Production % Max” value at GLP-1R (maximal response normalized relative to GLE, ≥4 independent experiments, ± S.E.M., NR = No Response) is recorded as 95 ± 2%. The Emax on GLP-2R (HEK293, read-out: GLP-2R cAMP Production % Max) came to 98 ± 1%.

Turning to GLP-2 (peptide), in the assay with nLuc-GLP-2R [3], the GLP-2R cAMP Production, % Max (normalized to GLP-2) amounted to 99% and the GLP-2R cAMP Production, EC50 (native GLP-2R) came to 0.086 nM. Besides, the IC50 (commonly the concentration at which inhibition is half-maximal) with nLuc-GLP-2R [4] is 25 nM.

Take “HGEGTFSSELATILDALAARDFIAWLIATKITDKKKKKK-NH2 [GLE, glepaglutide]”: the IC50 at nLuc-GLP-2R [2] came out at 170 nM; at nLuc-GLP-1R, 290 nM. The 50% effective concentration (EC50) (as a rule, the concentration giving half of the maximal effect) at GLP-1R was 5.1 nM; at GLP-2R it was 0.44 nM.
